Where two headings read alike, the source gives them in different places. Blank lines part the entries; values can stand above or below the compound they belong to.
Tests used:
[1] = test system: Wnt-dependent HCT116 cell line; experiment: Viability assay using Wnt-dependent HCT116 cell line (Cell Titer Glo); assay type: cell-based
Description: All compounds were tested using the human cell line HEK STF293. This cell line carries a Wnt reporter (TCF/LEF1 promoter), which drives expression of the firefly luciferase protein. The level of Wnt activity is directly correlated with the level of luciferase activity (determined using a simple assay). Compounds that inhibit Wnt signaling by reducing luciferase activity in these two cell lines are further tested biochemically. […] Compounds were further tested in a Viability assay using Wnt-dependent HCT116 cell line. HEK293 cells were seeded in a 6-well plate at approximately 8.0×10^5 cells (2 mL per well). On the first day, Wnt3a-conditioned media (1:1) and compounds (1:100) were added to the plated cells. The final concentrations of compounds were 1 μM, 500 nM, and 100 nM. Vehicle (DMSO) and a Wnt3a-conditioned media plus Vehicle samples were also prepared as controls. Lysates were collected (with non-denaturing lysis buffer) after 24 hours incubation, and protein concentrations determined by Bradford Assay. Immunoblotting with an anti-beta-catenin antibody (equivalent amounts of protein/lane for each condition) were subsequently performed to determine beta-catenin levels. HCT116 cells were seeded at 2,500 cells/well in a 96-well dish (Volume: 100 μL/well). On the second day, the 10 mM stock solution of each test compound was thawed at room temperature. Dilutions of the test compound were prepared in DMSO in a V-bottom 96-well plate. The stock compound solution, DMSO-diluted compound solutions, and DMSO were further diluted 500-fold in cell culture media, and 100 μL of the compound- or DMSO-containing cell culture media was added to each well of the cells. […] The final DMSO concentration was 0.1% in all wells. On the fifth day, 150 μL of media was removed from each well. 50 μL/well Cell Titer Glo reagent (Promega) was added to each well. The plate was shaken at 130 rpm for 15 minutes at room temperature, and the cell viability was determined using a luminescence plate reader. All compounds were tested using the human cell line HEK STF293. This cell line carries a Wnt reporter (TCF/LEF1 promoter), which drives expression of the firefly luciferase protein. The level of Wnt activity is directly correlated with the level of luciferase activity (determined using a simple assay). Compounds that inhibit Wnt signaling by reducing luciferase activity in these two cell lines are further tested biochemically. […] Compounds were further tested in a Viability assay using Wnt-dependent HCT116 cell line. HEK293 cells were seeded in a 6-well plate at approximately 8.0×10^5 cells (2 mL per well). On the first day, Wnt3a-conditioned media (1:1) and compounds (1:100) were added to the plated cells. The final concentrations of compounds were 1 μM, 500 nM, and 100 nM. Vehicle (DMSO) and a Wnt3a-conditioned media plus Vehicle samples were also prepared as controls. Lysates were collected (with non-denaturing lysis buffer) after 24 hours incubation, and protein concentrations determined by Bradford Assay. Immunoblotting with an anti-beta-catenin antibody (equivalent amounts of protein/lane for each condition) were subsequently performed to determine beta-catenin levels. HCT116 cells were seeded at 2,500 cells/well in a 96-well dish (Volume: 100 μL/well). On the second day, the 10 mM stock solution of each test compound was thawed at room temperature. Dilutions of the test compound were prepared in DMSO in a V-bottom 96-well plate. The stock compound solution, DMSO-diluted compound solutions, and DMSO were further diluted 500-fold in cell culture media, and 100 μL of the compound- or DMSO-containing cell culture media was added to each well of the cells. […] The final DMSO concentration was 0.1% in all wells. On the fifth day, 150 μL of media was removed from each well. 50 μL/well Cell Titer Glo reagent (Promega) was added to each well. The plate was shaken at 130 rpm for 15 minutes at room temperature, and the cell viability was determined using a luminescence plate reader. […]

[2] = test system: Wnt reporter (TCF/LEF1 promoter); experiment: HEK STF293 Wnt reporter (TOPFlash) luciferase assay, Steady Glo normalised to Cell Titer; assay type: cell-based, human
Description: All compounds were tested using the human cell line HEK STF293. This cell line carries a Wnt reporter (TCF/LEF1 promoter), which drives expression of the firefly luciferase protein. The level of Wnt activity is directly correlated with the level of luciferase activity (determined using a simple assay). Compounds that inhibit Wnt signaling by reducing luciferase activity in these two cell lines are further tested biochemically. […] Compounds were further tested in a Viability assay using Wnt-dependent HCT116 cell line. Compounds were prepared as 10 mM stocks for each compound in DMSO. Dilutions were prepared in a 96-well plate in DMSO. The stock dilutions are as follows: 10 mM, 1 mM, 100 μM, 10 μM, 100 nM, and 10 nM. Plates were sealed and stored at −20° C. […] On the first day, Wnt3a-conditioned media (1:1) were added along with diluted compounds (1:100). […] The final concentrations should therefore be 100 μM, 10 μM, 1 μM, 100 nM, 10 nM, and 1 nM. On the second day, the media was removed and 75 μL of Passive Lysis Buffer (Promega) is added to each well. The plate was shaken at 130 rpm for 15 minutes. For the Steady Glo assay, 45 μL of the lysis was removed and added to a white 96-well plate containing 45 μL/well of Steady Glo solution (Promega). For the Cell Titer assay, 25 μL of the lysis was transferred to a white 96-well plate containing 25 μL/well of Cell Titer solution (Promega). Both Steady Glo and Cell Titer assays were read with a luminescence plate reader. When determining EC50, the Steady Glo values were divided by the Cell Titer values to normalize for cell number. All compounds were tested using the human cell line HEK STF293. This cell line carries a Wnt reporter (TCF/LEF1 promoter), which drives expression of the firefly luciferase protein. The level of Wnt activity is directly correlated with the level of luciferase activity (determined using a simple assay). Compounds that inhibit Wnt signaling by reducing luciferase activity in these two cell lines are further tested biochemically. […] Compounds were further tested in a Viability assay using Wnt-dependent HCT116 cell line. Compounds were prepared as 10 mM stocks for each compound in DMSO. Dilutions were prepared in a 96-well plate in DMSO. The stock dilutions are as follows: 10 mM, 1 mM, 100 μM, 10 μM, 100 nM, and 10 nM. Plates were sealed and stored at −20° C. […] On the first day, Wnt3a-conditioned media (1:1) were added along with diluted compounds (1:100). […] The final concentrations should therefore be 100 μM, 10 μM, 1 μM, 100 nM, 10 nM, and 1 nM. On the second day, the media was removed and 75 μL of Passive Lysis Buffer (Promega) is added to each well. The plate was shaken at 130 rpm for 15 minutes. For the Steady Glo assay, 45 μL of the lysis was removed and added to a white 96-well plate containing 45 μL/well of Steady Glo solution (Promega). For the Cell Titer assay, 25 μL of the lysis was transferred to a white 96-well plate containing 25 μL/well of Cell Titer solution (Promega). Both Steady Glo and Cell Titer assays were read with a luminescence plate reader. When determining EC50, the Steady Glo values were divided by the Cell Titer values to normalize for cell number. All compounds were tested using the human cell line HEK STF293. This cell line carries a Wnt reporter (TCF/LEF1 promoter), which drives expression of the firefly luciferase protein. The level of Wnt activity is directly correlated with the level of luciferase activity (determined using a simple assay). Compounds that inhibit Wnt signaling by reducing luciferase activity in these two cell lines are further tested biochemically. […] Compounds were further tested in a Viability assay using Wnt-dependent HCT116 cell line. Compounds were prepared as 10 mM stocks for each compound in DMSO. Dilutions were prepared in a 96-well plate in DMSO. The stock dilutions are as follows: 10 mM, 1 mM, 100 μM, 10 μM, 100 nM, and 10 nM. Plates were sealed and stored at −20° C. […]

[3] = Homo sapiens, HCT-116, Examples for Formulae (IV), (V), (VI), and (VII), HCT116 cells, read-out: Viability IC50 category
[4] = Homo sapiens, STF/293, Examples for Formulae (IV), (V), (VI), and (VII), HEK STF293 cells, Wnt3a-conditioned media, read-out: TOPFlash IC50 category
[5] = Homo sapiens, HCT-116, Examples for Formulae (I), (II), and (III), HCT116 cells, read-out: Viability IC50 category
[6] = Homo sapiens, STF/293, Examples for Formulae (I), (II), and (III), HEK STF293 cells, Wnt3a-conditioned media, read-out: TOPFlash IC50 category
[7] = Homo sapiens, HCT-116, Examples for Formulae (VIII), (IX), and (X), HCT116 cells, read-out: Viability IC50 category
[8] = Homo sapiens, STF/293, Examples for Formulae (VIII), (IX), and (X), HEK STF293 cells, Wnt3a-conditioned media, read-out: TOPFlash IC50 category
[9] = Homo sapiens, HCT-116, read-out: Viability IC50 category
[10] = Homo sapiens, STF/293, read-out: TOPFlash IC50 category
[11] = Examples for Formulae (IV), (V), (VI), and (VII), HCT116 cells, read-out: Viability IC50 category
[12] = Examples for Formulae (IV), (V), (VI), and (VII), HEK STF293 cells, Wnt3a-conditioned media, read-out: TOPFlash IC50 category

SMILES: CCc1nc(-c2ccc(F)cc2)c(C(=O)Nc2nc(-c3ccccn3)cs2)o1 [Example 13]
IC50 [1, 3]: < 200 nM
IC50 [2, 4]: < 200 nM

SMILES: Cc1nn(Cc2ccc(Cl)cc2Cl)c(Cl)c1C(=O)Nc1nc(-c2ccccn2)cs1 [Example 13]
IC50 [1, 5]: 500 to 1000 nM
IC50 [2, 6]: 500 to 1000 nM

SMILES: O=C(Nc1nc(-c2ccccn2)cs1)c1cccnc1Oc1ccc(C(F)(F)F)cc1 [Example 13]
IC50 [1, 7]: 500 to 1000 nM
IC50 [2, 8]: 200 to 500 nM

SMILES: Cc1onc(-c2c(F)cccc2Cl)c1C(=O)Nc1nc(-c2ccccn2)cs1 [Example 14]
IC50 [1, 3]: 200 to 500 nM
IC50 [2, 4]: < 200 nM

SMILES: Cc1nn(Cc2ccc(C(F)(F)F)cc2)c(C)c1C(=O)Nc1nc(-c2ccccn2)cs1 [Example 16]
IC50 [1, 5]: 500 to 1000 nM
IC50 [2, 6]: 500 to 1000 nM

SMILES: Cc1onc(-c2ccc(Cl)cc2F)c1C(=O)Nc1nc(-c2ccccn2)cs1 [Example 16]
IC50 [1, 3]: 200 to 500 nM
IC50 [2, 4]: 200 to 500 nM

SMILES: Cc1onc(-c2ccc(Cl)cc2Cl)c1C(=O)Nc1nc(-c2ccccn2)cs1 [Example 17]
IC50 [1, 3]: 200 to 500 nM
IC50 [2, 4]: 200 to 500 nM

SMILES: O=C(Nc1nc(-c2ccccn2)cs1)c1c(C(F)(F)F)nn(-c2ccccc2)c1C(F)(F)F [Example 17]
IC50 [1, 5]: 1000 to 10000 nM
IC50 [2, 6]: 1000 to 10000 nM

SMILES: O=C(Nc1nc(-c2ccccn2)cs1)c1cnnn1-c1cccc(F)c1 [Example 18]
IC50 [1, 5]: 200 to 500 nM
IC50 [2, 6]: 200 to 500 nM

SMILES: Cc1cc(C(=O)Nc2nc(-c3ncccc3C)co2)n(-c2ccc(S(C)(=O)=O)cc2)n1 [Example 19]
IC50 [1, 7]: 200 to 500 nM
IC50 [2, 8]: < 200 nM

SMILES: COc1ccccc1-c1noc(C)c1C(=O)Nc1nc(-c2ccccn2)cs1 [Example 21]
IC50 [1, 9]: 1000 to 10000 nM
IC50 [2, 10]: 1000 to 10000 nM

SMILES: COc1ncccc1-c1noc(C)c1C(=O)Nc1nc(-c2ccccn2)cs1 [Example 22]
IC50 [1, 9]: 200 to 500 nM
IC50 [2, 10]: 200 to 500 nM

SMILES: CC(C)(C)c1nc(-c2ccc(F)cc2)c(C(=O)Nc2nc(-c3ccccn3)cs2)o1 [Example 23]
IC50 [1, 9]: 200 to 500 nM
IC50 [2, 10]: 200 to 500 nM

SMILES: Cc1onc(-c2ccc(C(F)(F)F)cc2)c1C(=O)Nc1nc(-c2ccccn2)cs1 [Example 24]
IC50 [1, 9]: < 200 nM
IC50 [2, 10]: < 200 nM

SMILES: Cc1onc(-c2ccccc2)c1C(=O)Nc1nc(-c2ccccn2)cs1 [Example 27]
IC50 [1, 9]: 200 to 500 nM
IC50 [2, 10]: 200 to 500 nM

SMILES: Cc1onc(-c2ccccc2Cl)c1C(=O)Nc1nc(-c2ccccn2)cs1 [Example 28]
IC50 [1, 9]: 200 to 500 nM
IC50 [2, 10]: 200 to 500 nM

SMILES: Cc1onc(-c2c(Cl)cccc2Cl)c1C(=O)Nc1nc(-c2ccccn2)cs1 [Example 29]
IC50 [1, 9]: < 200 nM
IC50 [2, 10]: < 200 nM

SMILES: O=C(Nc1nc(-c2ccccn2)cs1)c1oc(C2CC2)nc1-c1ccc(F)cc1 [Example 31]
IC50 [1, 3]: 200 to 500 nM
IC50 [2, 4]: < 200 nM

The next lines start with results.

IC50 [1, 5]: 200 to 500 nM
SMILES: O=C(Nc1nc(-c2ccccn2)cs1)c1cn(-c2ccccc2)nc1-c1ccccc1 [Example 14]
IC50 [2, 6]: < 200 nM

IC50 [1, 3]: 500 to 1000 nM
SMILES: COc1cccc(-c2noc(C)c2C(=O)Nc2nc(-c3ccccn3)cs2)c1 [Example 18]
IC50 [2, 4]: 200 to 500 nM

IC50 [1, 3]: 200 to 500 nM
SMILES: Cc1onc(-c2cccc(F)c2F)c1C(=O)Nc1nc(-c2ccccn2)cs1 [Example 19]
IC50 [2, 4]: 200 to 500 nM

IC50 [1, 5]: 200 to 500 nM
SMILES: Cn1nc(C(=O)Nc2nc(-c3ccccn3)cs2)c(-c2ccc(F)cc2)n1 [Example 19]
IC50 [2, 6]: 200 to 500 nM

IC50 [1, 3]: < 200 nM
SMILES: Cc1onc(-c2ccc(OC(F)(F)F)cc2)c1C(=O)Nc1nc(-c2ccccn2)cs1 [Example 26]
IC50 [2, 4]: 200 to 500 nM

IC50 [1, 11]: 200 to 500 nM
SMILES: Cc1nc(-c2ccc(C#N)cc2)c(C(=O)Nc2nc(-c3ccccn3)cs2)o1 [Example 30]
IC50 [2, 12]: < 200 nM

IC50 [1, 11]: 200 to 500 nM
SMILES: O=C(Nc1nc(-c2ccccn2)cs1)c1oc(C(F)F)nc1-c1ccc(F)cc1 [Example 33]
IC50 [2, 12]: < 200 nM

IC50 [1, 11]: 1000 to 10000 nM
SMILES: CN(C(=O)c1ccc(Cl)cc1)c1ncc(C(=O)Nc2nc(-c3ccccn3)cs2)o1 [Example 34]
IC50 [2, 12]: 1000 to 10000 nM

IC50 [1, 11]: 1000 to 10000 nM
SMILES: CN(C(=O)c1ccc(C(F)(F)F)cc1)c1ncc(C(=O)Nc2nc(-c3ccccn3)cs2)o1 [Example 35]
IC50 [2, 12]: 500 to 1000 nM
